The results in this text go back to patent US20140249135A1, “PIM KINASE INHIBITORS AND METHODS OF THEIR USE” (NOVARTIS AG, priority 2007, published 2014).

For assay [1], the system named is HEL 92.1.7 cells. Briefly: Cell proliferation assay (CellTiter-Glo), HEL 92.1.7. Format: cell-based. The settings on record: Homo sapiens. The method in brief: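 CellTiter-Glo luminescence was read after 3-day compound exposure at 37 °C of cells plated at 1000/well in RPMI1640 with 10% FBS. Signal was normalised between DMSO-treated and control-compound-treated wells. EC50 is the concentration giving 50% of maximal effect.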
Background: ATP-based viability assays read luminescence as a measure of living cells.

For assay [2], the target named is T1, human full length PKCE enzyme (Homo sapiens, UniProt Q02156).
T1 construct: human full length PKCE enzyme purchased from InVitrogen; purchased InVitrogen
T1 sequence (Q02156 1-737): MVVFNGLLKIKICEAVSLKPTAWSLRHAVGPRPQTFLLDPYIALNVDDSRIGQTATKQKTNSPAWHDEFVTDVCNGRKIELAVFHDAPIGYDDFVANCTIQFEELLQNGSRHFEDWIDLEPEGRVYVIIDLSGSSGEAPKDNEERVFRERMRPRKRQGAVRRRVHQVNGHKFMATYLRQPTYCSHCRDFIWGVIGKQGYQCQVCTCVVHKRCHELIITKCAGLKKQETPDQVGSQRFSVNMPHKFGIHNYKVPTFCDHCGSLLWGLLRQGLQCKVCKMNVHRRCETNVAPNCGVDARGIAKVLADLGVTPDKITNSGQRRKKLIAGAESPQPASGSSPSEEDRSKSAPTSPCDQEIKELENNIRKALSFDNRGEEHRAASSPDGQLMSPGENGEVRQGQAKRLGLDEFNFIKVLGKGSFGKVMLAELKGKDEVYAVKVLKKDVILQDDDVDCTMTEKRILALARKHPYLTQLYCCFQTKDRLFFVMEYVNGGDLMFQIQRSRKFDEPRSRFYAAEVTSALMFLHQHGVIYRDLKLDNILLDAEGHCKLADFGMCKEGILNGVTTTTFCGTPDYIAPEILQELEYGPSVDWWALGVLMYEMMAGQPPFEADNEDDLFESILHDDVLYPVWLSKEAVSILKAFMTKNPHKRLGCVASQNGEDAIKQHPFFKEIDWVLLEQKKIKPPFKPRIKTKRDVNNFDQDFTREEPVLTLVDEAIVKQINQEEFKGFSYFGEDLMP
Description: In vitro PKCE assay. Format: biochemical. To be noted: 10 nM enzyme, 40 uM peptide substrate, 20 uM ATP, KinaseGlo Plus readout; read-out: PKCε IC50. For orientation: Kinase-Glo measures the ATP left after a reaction by luminescence.

In assay [3] the target is Pim3 kinase (Homo sapiens, UniProt Q86V86). Briefly: Pim3 ATP depletion assay. The format is biochemical.
Assay [4] concerns the target Pim1 kinase (Homo sapiens, UniProt P11309). Briefly: Pim1 ATP depletion assay.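 Further: Luciferase-luciferin luminescence readout of residual ATP after PIM1 transfers phosphate to a peptide substrate, 40 µM ATP added, reaction run to roughly half ATP consumption.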 The format is biochemical.
Assay [5] addresses Pim2 kinase (Homo sapiens, UniProt Q9P1W9). Description: Pim2 ATP depletion assay.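 Further: Luciferase-based luminescent readout of ATP remaining after PIM2 phosphorylates a BAD peptide, final 5 nM enzyme, 4 µM ATP, 10 µM peptide, 2.5% DMSO, run to roughly half ATP consumption.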 The format is biochemical.
Assay [6] addresses KDR kinase (Homo sapiens, UniProt P35968). Briefly: KDR AlphaScreen assay. To be noted: KDR IC50 (μM). On the technique in general: Alpha assays give light when donor and acceptor beads are brought close together.
The mark [7] stands for this setting: Pim1 ATP depletion assay, read-out: IC50 (μM) PIM1.

Where two headings read alike, the source gives them in different places.

Sequence of Pim1 kinase (P11309 whole entry): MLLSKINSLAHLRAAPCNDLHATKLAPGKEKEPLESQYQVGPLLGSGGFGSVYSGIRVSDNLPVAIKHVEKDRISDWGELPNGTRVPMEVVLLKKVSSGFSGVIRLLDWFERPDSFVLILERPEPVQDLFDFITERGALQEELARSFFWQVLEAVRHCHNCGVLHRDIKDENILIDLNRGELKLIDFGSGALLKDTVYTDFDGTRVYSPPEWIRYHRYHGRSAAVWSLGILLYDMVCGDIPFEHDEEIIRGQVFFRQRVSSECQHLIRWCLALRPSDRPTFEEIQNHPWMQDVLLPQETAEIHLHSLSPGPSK
Sequence of KDR kinase (P35968 20-1356): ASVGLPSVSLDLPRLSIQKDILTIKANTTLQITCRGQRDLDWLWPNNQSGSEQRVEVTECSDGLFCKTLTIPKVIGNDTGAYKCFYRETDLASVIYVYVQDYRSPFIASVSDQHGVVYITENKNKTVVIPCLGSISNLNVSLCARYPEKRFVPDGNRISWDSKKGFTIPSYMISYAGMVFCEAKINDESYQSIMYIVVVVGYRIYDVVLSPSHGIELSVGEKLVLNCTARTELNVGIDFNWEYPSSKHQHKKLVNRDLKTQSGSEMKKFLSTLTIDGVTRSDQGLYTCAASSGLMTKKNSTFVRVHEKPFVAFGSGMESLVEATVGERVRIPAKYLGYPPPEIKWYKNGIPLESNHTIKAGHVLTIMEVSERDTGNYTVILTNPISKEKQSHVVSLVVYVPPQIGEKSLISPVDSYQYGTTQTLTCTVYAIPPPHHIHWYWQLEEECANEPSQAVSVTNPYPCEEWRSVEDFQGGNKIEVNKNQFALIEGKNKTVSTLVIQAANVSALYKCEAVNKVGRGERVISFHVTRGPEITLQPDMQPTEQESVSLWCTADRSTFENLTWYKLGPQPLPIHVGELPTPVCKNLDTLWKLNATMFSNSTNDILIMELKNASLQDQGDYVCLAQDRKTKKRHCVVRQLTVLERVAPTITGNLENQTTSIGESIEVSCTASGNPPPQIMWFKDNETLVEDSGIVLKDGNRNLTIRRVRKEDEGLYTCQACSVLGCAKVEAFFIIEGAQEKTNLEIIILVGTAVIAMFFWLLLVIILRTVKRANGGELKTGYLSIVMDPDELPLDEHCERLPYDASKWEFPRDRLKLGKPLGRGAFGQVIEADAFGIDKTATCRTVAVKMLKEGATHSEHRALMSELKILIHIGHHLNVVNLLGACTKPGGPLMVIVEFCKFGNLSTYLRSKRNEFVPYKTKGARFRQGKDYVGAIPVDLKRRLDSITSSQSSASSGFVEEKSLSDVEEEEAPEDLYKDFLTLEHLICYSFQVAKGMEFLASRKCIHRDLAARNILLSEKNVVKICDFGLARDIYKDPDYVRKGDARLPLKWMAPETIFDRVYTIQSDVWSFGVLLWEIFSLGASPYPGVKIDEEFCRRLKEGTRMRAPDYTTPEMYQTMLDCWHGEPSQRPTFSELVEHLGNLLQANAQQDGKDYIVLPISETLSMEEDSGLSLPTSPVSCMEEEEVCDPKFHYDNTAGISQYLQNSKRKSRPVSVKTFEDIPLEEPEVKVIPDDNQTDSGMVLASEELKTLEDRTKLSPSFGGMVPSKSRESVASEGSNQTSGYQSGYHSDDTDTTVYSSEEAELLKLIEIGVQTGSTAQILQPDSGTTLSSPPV
Sequence of Pim2 kinase (Q9P1W9 whole entry): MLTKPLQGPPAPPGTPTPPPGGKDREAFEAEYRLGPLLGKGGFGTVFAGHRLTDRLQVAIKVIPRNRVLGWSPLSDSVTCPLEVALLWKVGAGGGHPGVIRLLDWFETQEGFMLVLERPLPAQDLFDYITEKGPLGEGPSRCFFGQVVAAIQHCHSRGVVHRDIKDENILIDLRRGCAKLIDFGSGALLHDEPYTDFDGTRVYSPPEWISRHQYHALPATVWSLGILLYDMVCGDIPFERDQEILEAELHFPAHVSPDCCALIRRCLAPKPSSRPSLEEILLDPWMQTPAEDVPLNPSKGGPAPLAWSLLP

Broadly, the EC50 is the concentration that produces a half-maximal response. By IC50 is commonly meant the concentration needed to halve the response being measured. Turning to `Nc1nc(N)c(C(=O)Nc2cnccc2N2CCCC(N)C2)nc1Cl` (stereo not drawn) [Example 183, 3,5-diamino-N-[4-(3-amino-piperidin-1-yl)pyridin-3-yl]-6-chloropyrazine-2-carboxamide], the concentration giving a half-maximal response (EC50) in assay [1] (read-out: EC50 (μM) HEL 92.1.7) is under 1 µM. In addition, the IC50 in assay [2] was 10 to 25 µM; in assay [3] (read-out: IC50 (μM) PIM3), under 1 µM; in assay [4] (setting [7]), under 1 µM; in assay [5] (read-out: IC50 (μM) PIM2), under 1 µM; in assay [6], 1 to 10 µM.
`NCC1CCCN(c2ccncc2NC(=O)c2nccnc2N)C1` (stereo not drawn) [Example 184, 3-amino-N-{4-[3-(aminomethyl)-piperidin-1-yl]pyridin-3-yl}pyrazine-2-carboxamide]: the EC50 in assay [1] (read-out: EC50 (μM) HEL 92.1.7) is under 1 µM. Moreover, the IC50 in assay [2] is under 1 µM; in assay [3] (read-out: IC50 (μM) PIM3) it was under 1 µM; in assay [4] it was under 1 µM; in assay [5] (read-out: IC50 (μM) PIM2) it was 1 to 10 µM; in assay [6], 10 to 25 µM.
In the case of `NCCC(=O)N1CCN(c2ccncc2NC(=O)c2nc(Cl)c(N)nc2N)CC1` [Example 185, 3,5-Diamino-6-chloro-pyrazine-2-carboxylic acid {4-[4-(3-amino-propionyl)-piperazin-1-yl]-pyridin-3-yl}-amide], in assay [1] (read-out: EC50 (μM) HEL 92.1.7), the EC50 was under 1 µM. Also, the IC50 in assay [2] is 1 to 10 µM; in assay [3] (read-out: IC50 (μM) PIM3), under 1 µM; in assay [4] (setting [7]), under 1 µM; in assay [5] (read-out: IC50 (μM) PIM2) it was under 1 µM; in assay [6], 1 to 10 µM.
Turning to `Nc1nccnc1C(=O)Nc1[nH]c(=O)ncc1N1CCCC(N)C1` (stereo not drawn) [Example 235, 3-amino-N-[5-(3-aminopiperidin-1-yl)-2-oxo-2,3-dihydro-pyrimidin-4-yl]pyrazine-2-carboxamide], in assay [1] (read-out: EC50 (μM) HEL 92.1.7), the EC50 is over 10 µM. The IC50 in assay [2] is under 1 µM; in assay [3] (read-out: IC50 (μM) PIM3) it was under 1 µM; in assay [4] (setting [7]), under 1 µM; in assay [5] (read-out: IC50 (μM) PIM2) it was under 1 µM; in assay [6] it was 10 to 25 µM.
As for `CS(=O)(=O)c1cccc(-c2ccc(N)c(C(=O)Nc3cnccc3N3CCC[C@H](N)C3)n2)c1` [Example 320], the EC50 in assay [1] (read-out: EC50 (μM) HEL 92.1.7) is over 10 µM. The IC50 in assay [2] was 10 to 25 µM; in assay [3] (read-out: IC50 (μM) PIM3), under 1 µM; in assay [4] (setting [7]) it was under 1 µM; in assay [5] (read-out: IC50 (μM) PIM2) it was under 1 µM; in assay [6] it was over 25 µM.
In the case of `N#Cc1ccccc1-c1ccc(N)c(C(=O)Nc2cnccc2N2CCC[C@H](N)C2)n1` [Example 332, 3-amino-6-(2-cyano-phenyl)-pyridine-2-carboxylic acid ((S)-3-amino-3,4,5,6-tetra-hydro-2H-[1,4′]bipyridinyl-3′-yl)-amide], in assay [1] (read-out: EC50 (μM) HEL 92.1.7), the EC50 fell in the range of 1 to 5 µM. The half-maximal inhibitory concentration (IC50) is 1 to 10 µM in assay [2]; under 1 µM in assay [3] (read-out: IC50 (μM) PIM3); under 1 µM in assay [4] (setting [7]); under 1 µM in assay [5] (read-out: IC50 (μM) PIM2); over 25 µM in assay [6].
`Cc1ccc(F)c(-c2ccc(N)c(C(=O)Nc3cnccc3N3CCC[C@H](N)C3)n2)c1` [Example 333, 3-amino-6-(2-fluoro-5-methyl-phenyl)-pyridine-2-carboxylic acid ((S)-3-amino-3,4,5,6-tetrahydro-2H-[1,4′]bi-pyridinyl-3′-yl)-amide]: the EC50 in assay [1] (read-out: EC50 (μM) HEL 92.1.7) was in the range of 1 to 5 µM. For the same compound, the concentration for half-maximal inhibition (IC50) in assay [2] is 10 to 25 µM; in assay [3] (read-out: IC50 (μM) PIM3), under 1 µM; in assay [4] (setting [7]), under 1 µM; in assay [5] (read-out: IC50 (μM) PIM2) it was under 1 µM; in assay [6], over 25 µM.
In the case of `Cc1ccccc1-c1nc(C(=O)Nc2cnccc2N2CCCC(N)C2)c(N)nc1N` (stereo not drawn) [Example 340, 3,5-diamino-6-o-tolyl-pyrazine-2-carboxylic acid (3-amino-3,4,5,6-tetrahydro-2H-[1,4′]bipyridinyl-3′-yl)-amide], in assay [1] (read-out: EC50 (μM) HEL 92.1.7), the EC50 is 1 to 5 µM. The IC50 was 1 to 10 µM in assay [2]; under 1 µM in assay [3] (read-out: IC50 (μM) PIM3); under 1 µM in assay [4] (setting [7]); under 1 µM in assay [5] (read-out: IC50 (μM) PIM2); 10 to 25 µM in assay [6].
Regarding `Nc1nc(N)c(-c2ccccc2C(F)(F)F)nc1C(=O)Nc1cnccc1N1CCCC(N)C1` (stereo not drawn) [Example 341, 3,5-diamino-6-(2-trifluoro-methyl-phenyl)-pyrazine-2-carboxylic acid (3-amino-3,4,5,6-tetrahydro-2H-[1,4′]bi-pyridinyl-3′-yl)-amide], the EC50 in assay [1] (read-out: EC50 (μM) HEL 92.1.7) was 1 to 5 µM. Moreover, the IC50 was under 1 µM in assay [2]; under 1 µM in assay [3] (read-out: IC50 (μM) PIM3); under 1 µM in assay [4] (setting [7]); under 1 µM in assay [5] (read-out: IC50 (μM) PIM2); 1 to 10 µM in assay [6].
As for `Nc1nc(N)c(-c2ccccc2Cl)nc1C(=O)Nc1cnccc1N1CCCC(N)C1` (stereo not drawn) [Example 342, 3,5-diamino-6-(2-chloro-phenyl)-pyrazine-2-carboxylic acid (3-amino-3,4,5,6-tetra-hydro-2H-[1,4′]bipyridinyl-3′-yl)-amide], in assay [1] (read-out: EC50 (μM) HEL 92.1.7), the EC50 was under 1 µM. Moreover, the IC50 in assay [2] was 1 to 10 µM; in assay [3] (read-out: IC50 (μM) PIM3) it was under 1 µM; in assay [4] (setting [7]), under 1 µM; in assay [5] (read-out: IC50 (μM) PIM2) it was under 1 µM; in assay [6] it was 1 to 10 µM.
On to `Nc1nc(N)c(-c2ccccc2F)nc1C(=O)Nc1cnccc1N1CCCC(N)C1` (stereo not drawn) [Example 343, 3,5-diamino-6-(2-fluoro-phenyl)-pyrazine-2-carboxylic acid (3-amino-3,4,5,6-tetra-hydro-2H-[1,4′]bipyridinyl-3′-yl)-amide], for which, in assay [1] (read-out: EC50 (μM) HEL 92.1.7), the EC50 is under 1 µM. For the same compound, the half-maximal inhibitory concentration (IC50) is 1 to 10 µM in assay [2]; under 1 µM in assay [3] (read-out: IC50 (μM) PIM3); under 1 µM in assay [4] (setting [7]); under 1 µM in assay [5] (read-out: IC50 (μM) PIM2); 1 to 10 µM in assay [6].
Take `COc1ccccc1-c1nc(C(=O)Nc2cnccc2N2CCCC(N)C2)c(N)nc1N` (stereo not drawn) [Example 344, 3,5-diamino-6-(2-methoxy-phenyl)-pyrazine-2-carboxylic acid (3-amino-3,4,5,6-tetra-hydro-2H-[1,4′]bipyridinyl-3′-yl)-amide]: the EC50 in assay [1] (read-out: EC50 (μM) HEL 92.1.7) is over 10 µM. For the same compound, the IC50 in assay [2] was 10 to 25 µM; in assay [3] (read-out: IC50 (μM) PIM3), under 1 µM; in assay [4] (setting [7]), under 1 µM; in assay [5] (read-out: IC50 (μM) PIM2), under 1 µM; in assay [6], over 25 µM.
`Nc1cc(Cl)c(-c2ccc(N)c(C(=O)Nc3cnccc3N3CCC[C@H](N)C3)n2)cn1` [Example 410, 5,6′-diamino-4′-chloro-[2,3′]bi-pyridinyl-6-carboxylic acid ((S)-3-amino-3,4,5,6-tetrahydro-2H-[1,4′]bipyridinyl-3′-yl)-amide]: the EC50 in assay [1] (read-out: EC50 (μM) HEL 92.1.7) was in the range of 1 to 5 µM. In addition, the IC50 in assay [2] is 1 to 10 µM; in assay [3] (read-out: IC50 (μM) PIM3) it was under 1 µM; in assay [4] (setting [7]), under 1 µM; in assay [5] (read-out: IC50 (μM) PIM2) it was under 1 µM; in assay [6] it was over 25 µM.
As to `Nc1ccc(-c2ccc(N)c(C(=O)Nc3cnccc3N3CCC[C@H](N)C3)n2)cn1` [Example 418, 5,6′-diamino-[2,3′]bipyridinyl-6-carboxylic acid ((S)-3-amino-3,4,5,6-tetrahydro-2H-[1,4′]bi-pyridinyl-3′-yl)-amide], the EC50 in assay [1] (read-out: EC50 (μM) HEL 92.1.7) lay within 1 to 5 µM. The half-inhibitory concentration (IC50) was 10 to 25 µM in assay [2]; under 1 µM in assay [3] (read-out: IC50 (μM) PIM3); under 1 µM in assay [4] (setting [7]); under 1 µM in assay [5] (read-out: IC50 (μM) PIM2); over 25 µM in assay [6].
On to `Nc1ccc(-c2ccc(F)cc2F)nc1C(=O)Nc1cnccc1N1CCC[C@H](N)C1` [Example 431, 3-amino-6-(2,4-difluoro-phenyl)-pyridine-2-carboxylic acid ((S)-3-amino-3,4,5,6-tetrahydro-2H-[1,4′]bipyridinyl-3′-yl)-amide], for which the EC50 in assay [1] (read-out: EC50 (μM) HEL 92.1.7) fell in the range of 1 to 5 µM. Further, the IC50 in assay [2] is 1 to 10 µM; in assay [3] (read-out: IC50 (μM) PIM3), under 1 µM; in assay [4] (setting [7]) it was under 1 µM; in assay [5] (read-out: IC50 (μM) PIM2), under 1 µM; in assay [6], over 25 µM.
In the case of `Nc1ncc(-c2ccccc2)nc1C(=O)Nc1[nH]c(=O)ncc1N1CCCCC1` [Example 590, 3-amino-6-phenyl-pyrazine-2-carboxylic acid (2-oxo-5-piperidin-1-yl-2,3-dihydro-pyrimidin-4-yl)-amide], in assay [1] (read-out: HEL 92.1.7 EC50), the EC50 was 1 to 5 µM. Besides, the IC50 in assay [2] is 1 to 10 µM; in assay [3] (read-out: PIM3 IC50) it was under 1 µM; in assay [4] (Pim1 ATP depletion assay, read-out: PIM1 IC50) it was under 1 µM; in assay [5] (read-out: PIM2 IC50), under 1 µM; in assay [6] it was under 1 µM.
